Results on six compounds are retold here after publication PMC9292215 (Clinical Pharmacology and Therapeutics, 2021).

Bounds are passed on as bounds.

One series addresses T1, FAAH (Homo sapiens, UniProt O00519).
T1 sequence (O00519 1-579): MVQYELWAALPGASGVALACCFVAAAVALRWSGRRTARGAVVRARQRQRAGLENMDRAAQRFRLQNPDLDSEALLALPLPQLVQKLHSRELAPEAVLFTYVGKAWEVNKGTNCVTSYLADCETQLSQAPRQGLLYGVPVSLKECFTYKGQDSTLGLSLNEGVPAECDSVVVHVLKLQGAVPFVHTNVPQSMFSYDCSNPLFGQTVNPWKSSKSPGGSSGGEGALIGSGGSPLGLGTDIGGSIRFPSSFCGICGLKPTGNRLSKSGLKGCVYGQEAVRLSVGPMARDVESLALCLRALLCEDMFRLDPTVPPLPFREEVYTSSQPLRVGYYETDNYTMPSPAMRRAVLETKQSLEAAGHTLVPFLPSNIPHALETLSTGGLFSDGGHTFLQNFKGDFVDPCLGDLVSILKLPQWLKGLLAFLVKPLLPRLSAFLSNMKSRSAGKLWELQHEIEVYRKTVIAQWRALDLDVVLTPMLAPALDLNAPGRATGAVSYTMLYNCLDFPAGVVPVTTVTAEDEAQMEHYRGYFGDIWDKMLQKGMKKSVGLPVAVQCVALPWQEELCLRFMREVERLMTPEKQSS
The conditions noted are these: cited from earlier work.

Series [1] can be described thus: Plasma pharmacokinetics of BIA 10-2474 and metabolites. It counts as in vivo, human.
The conditions of series [2]: cited from earlier work.
[3] abbreviates: 20 mg BIA 10-2474 once daily, Day 10.
Where [4] appears, read: after single dose 40 mg BIA 10-2474.
The mark [5] stands for this setting: after single dose 100 mg BIA 10-2474.
[6] abbreviates: repeated dose levels below 20 mg for 10 days.
The mark [7] stands for this setting: 20 mg BIA 10-2474 once daily, Day 1.

On to `O=C(Nc1cccnn1)N1CCC(=Cc2cccc(Oc3ccc(C(F)(F)F)cn3)c2)CC1` [PF-04457845], for which the “tested dose as multiple of the dose required for complete FAAH inhibition” value at FAAH is on record as 133 times. Besides, on FAAH (for 6 days or more), the FAAH inhibition entry is “more than 90%”.

In the case of `CN(C(=O)n1cnc(-c2cccnc2)c1)C1CCCCC1` [BIA 10-2445], in series [1] (setting [3]), the “AUC0–t of metabolite” value is given as 105 (64.7) ng⋅hour/mL, the Cmax of metabolite was 8.27 (3.42) ng/mL and the tmax of metabolite is listed as 4.0 (4.0–12.0) hour. For the same compound, in series [1] (setting [4]), the AUC0-t of metabolite is listed as 51.3 (71.4) ng hour/mL, the Cmax of metabolite is reported as 4.66 (44.7) ng/mL and the tmax of metabolite is listed as 12.0 (3.0–24.0) hour. Further, in series [1] (setting [5]), the AUC0-t of metabolite is 303 (68.3) ng hour/mL, the Cmax of metabolite is 11.4 (27.1) ng/mL and the tmax of metabolite is reported as 12.0 (3.0–24.0) hour. Also, the “plasma abundance of metabolite” value in series [1] (setting [6]) is given as “undetectable”. Further, in series [1] (single dose levels below 40 mg), the “plasma abundance of metabolite” value was “undetectable”.

For `O=C(Nc1cnccc1Cl)N1CCN(Cc2ccc3c(c2)OC(F)(F)O3)CC1` [JNJ-42165279], on FAAH, the “duration of FAAH inhibition” value is greater than 24 h and the “tested dose as multiple of the dose required for complete FAAH inhibition” value is on record as “at least 10 times”. Further, in series [2], the half-life is 8 to 14 h.

On to `CN(C(=O)n1cnc(-c2ccc[n+]([O-])c2)c1)[C@H]1CC[C@H](O)CC1` [BIA 10-2639, N-(trans-4-hydroxycyclohexyl)-N-methyl-4-(1-oxidopyridin-3-yl)l-1H-imidazole-1-carboxamide], for which, in series [1] (setting [7]), the “AUC0–t of metabolite” value is recorded as 21.8 (6.8) ng⋅hour/mL, the “AUC0–∞ of metabolite” value was 26.6 (8.5) ng⋅hour/mL, the Cmax of metabolite was 4.1 (0.5) ng/mL and the t1/2 of metabolite is 9.94 (1.79) h. The tmax of metabolite in series [1] (setting [7]) is reported as 1.0 (1.0–2.0) hour. Moreover, in series [1] (setting [3]), the “AUC0–t of metabolite” value is 47.3 (20.6) ng⋅hour/mL, the Cmax of metabolite is on record as 5.8 (1.7) ng/mL and the tmax of metabolite was 1.0 (1.0–2.0) hour. In addition, in series [1] (setting [4]), the AUC0-t of metabolite was 59.2 (30.6) ng hour/mL, the Cmax of metabolite was 8.09 (30.7) ng/mL, the t1/2 of metabolite is given as 9.78 (67.1) hour and the tmax of metabolite is on record as 2.0 (1.0–3.0) hour. Also, in series [1] (setting [5]), the AUC0-t of metabolite was 206 (40.7) ng hour/mL, the “AUC0-∞ of metabolite” value is 271 (35.6) ng hour/mL, the Cmax of metabolite was 19.6 (29.1) ng/mL and the t1/2 of metabolite is 9.20 (15.2) hour. Also, in series [1] (setting [5]), the tmax of metabolite is listed as 2.0 (1.0–3.0) hour. The “plasma abundance of metabolite” value in series [1] (setting [6]) was “undetectable”. Further, the “plasma abundance of metabolite” value in series [1] (single dose levels below 40 mg) is given as “undetectable”.

With `O=C(NC1CCCCC1)n1cnc(-c2ccc[n+]([O-])c2)c1` [BIA 10-2583], the “plasma abundance of metabolite” value in series [1] (setting [6]) and in series [1] (single dose levels below 40 mg) was “undetectable” each time.

Turning to `CN(C(=O)n1cnc(-c2cccnc2)c1)[C@H]1CC[C@H](O)CC1` [BIA 10-2631, N-(trans-4-hydroxycyclohexyl)-N-methyl-4-pyridin-3-yl-1H-imidazole-1-carboxamide], in series [1] (setting [3]), the “AUC0–t of metabolite” value is reported as 203 (197) ng⋅hour/mL, the Cmax of metabolite is recorded as 7.41 (3.9) ng/mL and the tmax of metabolite is reported as 4.0 (2.0–24.0) hour. Further, in series [1] (setting [5]), the AUC0-t of metabolite is 359 (36.3) ng hour/mL, the Cmax of metabolite is 7.1 (30.9) ng/mL and the tmax of metabolite is listed as 18.0 (2.0–24.0) hour. Besides, in series [1] (setting [6]), the “plasma abundance of metabolite” value is on record as “undetectable”. Moreover, the “plasma abundance of metabolite” value in series [1] (single dose levels below 40 mg) is “undetectable”.
